Experimental data reported in patent US11779572B1, “Methods of treating gastrointestinal stromal tumors” (Deciphera Pharmaceuticals, LLC, priority 2022, dated 2023).
Read-outs that look alike come from different tables or passages of the source.

Tests used:
[1] = Coadministration with pantoprazole (proton-pump inhibitor); format: in vivo, human; details: 40 mg QD pantoprazole with 150 mg QD ripretinib
Procedure: The effect of a proton-pump inhibitor on the exposure of ripretinib was evaluated.

[2] = PBPK model of ripretinib and DP-5439 (Simcyp Simulator)
Text: A PBPK model that included a mechanistic absorption model was developed.
Thus, potential auto-induction and auto-inhibition effects were captured within the model.
Single dose (SD) PK data from participants with mild, moderate, and severe HI were used to refine and/or verify the PBPK model. […] Subsequently, the corresponding plasma concentration-time profiles in HI participants were likewise simulated and compared to the observed data.
Predictions of plasma drug concentration-time profiles, clearance and DDIs were performed in the Simcyp Simulator using a population of virtual participants. The default healthy participant population was applied in all simulations involving healthy participants. […] With the exception of demographic data, all parameter values for the healthy participant population were the same as those used for the North European Caucasian population.
For simulations involving cancer participants, the North European Caucasian population was used to accommodate the wider age range observed in this population (19 to 87 years old; median 61 years). Weibull age distribution was applied with alpha and beta values of 5.47 and 66.5 years for male participants and 5.22 and 68.57 years for female participants. Age, height and weight distributions for the simulated virtual participant population were consistent with those from the first-in-human dose-escalation study in cancer patients.
For simulations involving participants with HI, 3 population models have been developed for the Simcyp Simulator and are based on the 3 Child-Pugh categories (CP-A, CP-B and CP-C). […] When reduced hepatic size was also taken into account, overall CYP3A4 expression in CP-A, CP-B and CP-C participants was reduced to 69%, 36% and 20%, respectively, to that of healthy participants.

[3] = Observed clinical PK after single and multiple doses; format: in vivo; details: human, plasma, oral; SD administration, healthy participants
Procedure: CYP3A4 inactivation parameters and induction parameters were subsequently incorporated in the model to assess the net effect on drug clearance at steady state. Due to the uncertainty in the in vitro CYP3A4 MBI data and CYP3A4 induction data, a series of sensitivity analysis was performed. […] Therefore, the in vitro CYP3A4 interaction data were used in the final model. The simulated profiles of ripretinib and DP-5439 in virtual participants were compared to the clinical data. […] The predicted mean AUC0-12 values for DP-5439 on Day 1 were within 2-fold (majority within 1.5-fold) of the observed values, except for the 250-mg QD dose. The mean AUC0-12 and Cmax values for DP-5439 on Day 15 were under-predicted. […] For example, the reported AUCs for ripretinib and DP-5439 at the 150-mg QD dose level were 1.66 and 5.29, respectively. […] The mechanisms for the accumulation of DP-5439 were unclear.

[4] = Unbound fraction / plasma protein binding; format: in vitro ADME, human; details: human, plasma, oral, 50 mg, read-out: unbound fraction fu %
Text: (§1) Both ripretinib and DP-5439 display high binding to plasma proteins in vitro; therefore, clinical samples were collected to investigate the effect of HI on the unbound fraction (fu) % for both analytes. Distributions of individual mean fu % for both ripretinib and DP-5439 show high variability between participants. The ripretinib mean fu % was ≤0.6% in healthy participants and in participants with hepatic impairment. The DP-5439 fu % was ≤0.5% in healthy participants and 0.2% to 1.4% in participants with hepatic impairment. No clear trend could be established between unbound ripretinib and DP-5439 PK parameters and the degrees of HI.

plasma proteins = experiment: Unbound fraction / plasma protein binding; format: in vitro ADME, human
Text: as §1

[5] = Food effect (high-fat meal) on exposure; format: in vivo, human; details: 150 mg dose of ripretinib
Procedure: The effect of a high-fat breakfast on ripretinib and Compound A exposure was evaluated. A high fat meal consisted of approximately 150, 250, and 500-600 calories from protein, carbohydrate, and fat, respectively. […] The food effect is not considered to be clinically significant based on exposure-response analysis. Therefore, ripretinib may be taken with or without food at approximately same time each day.

- plasma exposure when ripretinib is coadministered with pantoprazole [1]: No clinically significant differences
- all predictions relative to observed ([2]; 150 mg QD dose): ≤ 2 fold
- predicted mean AUC0-12 relative to observed values ([2]; Day 1, except 250-mg QD dose): ≤ 2 fold
- half-life [3]: ~17 h
- fraction unbound ([4]; healthy participants): ≤ 0.005
- fraction unbound ([4]; participants with hepatic impairment): 0.002 to 0.014
- binding to plasma proteins (plasma proteins; in vitro): high binding
- AUC0-24h higher with a high-fat meal [5]: 47%
- Cmax higher with a high-fat meal [5]: 66%
Structure (SMILES): CCn1c(=O)c(-c2cc(NC(=O)Nc3ccccc3)c(F)cc2Br)cc2cnc(N)cc21 [Compound A]
- impact of HI (albumin, ALP, ALT, AST, bilirubin changes) on unbound exposure (plasma proteins; visual assessment): did not appear to have an impact
